Assay results from the SangsterLogP compilation.

Row | logP | SMILES
1 | 6.11 | CCCCCCCCCCCCCC(=O)O
2 | 8.23 | CCCCCCCCCCCCCCCCCC(=O)O
3 | 7.17 | CCCCCCCCCCCCCCCC(=O)O

The next lines start with the compound.

Row | SMILES | logP
4 | CC/C=C\C/C=C\C/C=C\CCCCCCCC(=O)O | 6.46
5 | CCCCC/C=C\C/C=C\C/C=C\C/C=C\CCCC(=O)O | 6.98
6 | CCCCCC(=O)O | 1.87
7 | CCCCCCC/C=C\CCCCCCC(=O)O | 6.58
8 | CC(C)OC(=O)c1ccccc1 | 3.09
9 | CCCCCCCCCCCCCCCCCCCC(=O)O | 9.29
10 | CCCCC/C=C\C/C=C\CCCCCCCC(=O)O | 7.05
11 | CCCCCCCC/C=C\CCCCCCCC(=O)O | 7.64
